# Results taken from patent US8987195B2 (priority 2012, dated 2015).
# Like-named read-outs stand apart in the source and are kept apart here.
# Assays:
# HCV genotype 1b replicon = test: HCV replicon assay, genotype 1b replicon EC50; format: cell-based, Hepatitis C virus; conditions: Hepatitis C virus, genotype 1b replicon, read-out: EC50 [gt-1b]
# Procedure, shortened: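 Cells harbouring a stable replicon are grown under G418 selection, then plated with test compound in G418-free medium for 24-48 hours. After washing and lysis, RNA or luciferase signal is measured and expressed as percent of DMSO control to give EC50.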
# [1] = target: HCV NS3/4A protease genotype 1b (Hepatitis C virus genotype 1b, UniProt P26663); test: HCV NS3/4A protease time-resolved fluorescence (TRF) assay, Ki against genotype 1b; format: biochemical; conditions: IC50 [gt-1b] (nM), NS3/4A genotype 1b, enzyme 0.2 nM
# Procedure, shortened: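 Ki values come from IC50 fits corrected for substrate concentration and KM. The time-resolved fluorescence protease reaction used 25 nM peptide substrate, 2.5 h, room temperature, pH 7.5 HEPES buffer, after 30 min enzyme–inhibitor preincubation.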
# Sequence of HCV NS3/4A protease genotype 1b (P26663 1027-1657): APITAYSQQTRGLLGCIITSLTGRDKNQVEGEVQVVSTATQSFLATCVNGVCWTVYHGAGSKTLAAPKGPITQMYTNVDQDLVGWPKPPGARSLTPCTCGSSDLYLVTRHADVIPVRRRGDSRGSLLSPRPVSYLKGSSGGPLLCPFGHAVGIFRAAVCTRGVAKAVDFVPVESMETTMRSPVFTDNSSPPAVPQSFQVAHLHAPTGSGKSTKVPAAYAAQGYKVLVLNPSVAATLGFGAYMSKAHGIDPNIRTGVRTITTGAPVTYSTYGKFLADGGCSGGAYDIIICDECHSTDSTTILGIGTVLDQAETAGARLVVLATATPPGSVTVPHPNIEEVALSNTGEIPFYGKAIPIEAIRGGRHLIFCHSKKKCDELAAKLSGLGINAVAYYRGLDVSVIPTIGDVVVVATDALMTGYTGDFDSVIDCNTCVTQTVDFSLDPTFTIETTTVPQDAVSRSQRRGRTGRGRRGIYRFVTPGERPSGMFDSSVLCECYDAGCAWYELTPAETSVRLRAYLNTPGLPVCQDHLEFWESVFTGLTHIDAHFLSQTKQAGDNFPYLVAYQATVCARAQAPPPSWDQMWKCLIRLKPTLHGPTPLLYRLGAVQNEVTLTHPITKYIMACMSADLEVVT
# Sequence of HCV NS3/4A protease genotype 1b (P26663 1658-1711): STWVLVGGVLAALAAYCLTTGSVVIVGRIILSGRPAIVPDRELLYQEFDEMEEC
Compound,EC50 (HCV genotype 1b replicon),IC50 [1],EC50 (HCV genotype 1b replicon; K+ salt),IC50 ([1]; K+ salt)
"CC1(C)CCCC1OC(=O)N[C@H]1CCCCC/C=C\[C@@H]2C[C@@]2(C(=O)NS(=O)(=O)C2(C)CC2)NC(=O)[C@@H]2C[C@]3(CCc4c(c(C5CC5)nc5c(F)cccc45)O3)CN2C1=O (stereo partly drawn) [Example 187, 2,2-dimethylcyclopentyl [(2R,6S,12Z,13aS,14aR,16aS)-5′-cyclopropyl-7′-fluoro-14a-{[(1-methylcyclopropyl)sulfonyl]carbamoyl}-5,16-dioxo-1,1′,2′,5,6,7,8,9,10,11,13a,14,14a,15,16,16a-hexadecahydrospiro[cyclopropa[e]pyrrolo[1,2-a][1,4]diazacyclopentadecine-2,3′-pyrano[2,3-c]quinolin]-6-yl]carbamate]",8.33 nM,0.023 nM,,
"Cc1nc2cc(F)c(F)cc2c2c1O[C@]1(CC2)C[C@H]2C(=O)N[C@]3(C(=O)NS(=O)(=O)C4(C)CC4)C[C@H]3/C=C\CCCCC[C@H](NC(=O)OC(C)(C)C)C(=O)N2C1 [Example 188, tert-butyl [(2R,6S,12Z,13aS,14aR,16aS)-8′,9′-difluoro-5′-methyl-14a-{[(1-methylcyclopropyl)sulfonyl]carbamoyl}-5,16-dioxo-1,1′,2′,5,6,7,8,9,10,11,13a,14,14a,15,16,16a-hexadecahydrospiro[cyclopropa[e]pyrrolo[1,2-a][1,4]diazacyclopentadecine-2,3′-pyrano[2,3-c]quinolin]-6-yl]carbamate]",3.85 nM,0.006 nM,,
"Cc1nc2ccc(Cl)cc2c2c1O[C@]1(CC2)C[C@H]2C(=O)N[C@]3(C(=O)NS(=O)(=O)C4(C)CC4)C[C@H]3/C=C\CCCCC[C@H](NC(=O)OC3CCCCC3)C(=O)N2C1 [Example 190, cyclohexyl [(2R,6S,12Z,13aS,14aR,16aS)-9′-chloro-5′-methyl-14a-{[(1-methylcyclopropyl)sulfonyl]carbamoyl}-5,16-dioxo-1,1′,2′,5,6,7,8,9,10,11,13a,14,14a,15,16,16a-hexadecahydrospiro[cyclopropa[e]pyrrolo[1,2-a][1,4]diazacyclopentadecine-2,3′-pyrano[2,3-c]quinolin]-6-yl]carbamate]",,,13.2 nM,0.009 nM
"CC1(S(=O)(=O)NC(=O)[C@@]23C[C@H]2/C=C\CCCCC[C@H](NC(=O)OC2(C4CC4)CC2)C(=O)N2C[C@@]4(CCc5c(c(C6CC6)nc6c(F)cccc56)O4)C[C@H]2C(=O)N3)CC1 [Example 191, 1,1′-bi(cyclopropyl)-1-yl [(2R,6S,12Z,13aS,14aR,16aS)-5′-cyclopropyl-7′-fluoro-14a-{[(1-methylcyclopropyl)sulfonyl]carbamoyl}-5,16-dioxo-1,1′,2′,5,6,7,8,9,10,11,13a,14,14a,15,16,16a-hexadecahydrospiro[cyclopropa[e]pyrrolo[1,2-a][1,4]diazacyclopentadecine-2,3′-pyrano[2,3-c]quinolin]-6-yl]carbamate]",3.59 nM,0.012 nM,,
"CC(C)(C)COC(=O)N[C@H]1CCCCC/C=C\[C@@H]2C[C@@]2(C(=O)NS(=O)(=O)C2(C)CC2)NC(=O)[C@@H]2C[C@]3(CCc4c(c(C5CC5)nc5c(F)cccc45)O3)CN2C1=O [Example 192, 2,2-dimethylpropyl [(2R,6S,12Z,13aS,14aR,16aS)-5′-cyclopropyl-7′-fluoro-14a-{[(1-methylcyclopropyl)sulfonyl]carbamoyl}-5,16-dioxo-1,1′,2′,5,6,7,8,9,10,11,13a,14,14a,15,16,16a-hexadecahydrospiro[cyclopropa[e]pyrrolo[1,2-a][1,4]diazacyclopentadecine-2,3′-pyrano[2,3-c]quinolin]-6-yl]carbamate]",9.61 nM,0.019 nM,,
